Consider 2 compounds from patent publication US20230002375A1, “HYDROPYRAZINO[1,2-B]ISOQUINOLINE COMPOUNDS FOR THE TREATMENT OF AUTOIMMUNE DISEASE” (Hoffmann-La Roche Inc., priority 2019, published 2023).

pIC50: −log10 of the molar value.

Series [1] is described as follows: Human microsomal stability assay. It counts as in vitro ADME. The note with it: human liver microsomes, 1 μM test compound, 0.5 mg/mL protein, 37° C.; low <7.0, medium 7.0-16.2, high 16.2-23.2 mL/min/kg. The procedure:
Human Microsomal Stability Assay
Human liver microsomes (Cat.NO.: 452117, Corning, USA) were preincubated with test compound for 10 minutes at 37° C. in 100 mM potassium phosphate buffer, pH 7.4. The reactions were initiated by adding NADPH regenerating system. The final incubation mixtures contained 1 μM test compound, 0.5 mg/mL liver microsomal protein, 1 mM MgCl2, 1 mM NADP, 1 unit/mL isocitric dehydrogenase and 6 mM isocitric acid in 100 mM potassium phosphate buffer, pH 7.4. After incubation times of 0, 3, 6, 9, 15 and 30 minutes at 37° C., 300 μL of cold ACN (including internal standard) was added to 100 μL incubation mixture to terminate the reaction. Following precipitation and centrifugation, 100 uL supernatant will be taken out and added 300 uL water. The amount of compound remaining in the samples was determined by LC-MS/MS. Controls of no NADPH regenerating system at zero and 30 minutes were also prepared and analyzed. The results were categorized as: low (<7.0 mL/min/kg), medium (7.0-16.2 mL/min/kg) and high (16.2-23.2 mL/min/kg).
In general terms: Liver microsomes are vesicles of endoplasmic reticulum, rich in cytochrome P450 enzymes.

The next series has as its target T1, human TLR9 (Homo sapiens, UniProt Q9NR96).
T1 sequence (Q9NR96 26-1032): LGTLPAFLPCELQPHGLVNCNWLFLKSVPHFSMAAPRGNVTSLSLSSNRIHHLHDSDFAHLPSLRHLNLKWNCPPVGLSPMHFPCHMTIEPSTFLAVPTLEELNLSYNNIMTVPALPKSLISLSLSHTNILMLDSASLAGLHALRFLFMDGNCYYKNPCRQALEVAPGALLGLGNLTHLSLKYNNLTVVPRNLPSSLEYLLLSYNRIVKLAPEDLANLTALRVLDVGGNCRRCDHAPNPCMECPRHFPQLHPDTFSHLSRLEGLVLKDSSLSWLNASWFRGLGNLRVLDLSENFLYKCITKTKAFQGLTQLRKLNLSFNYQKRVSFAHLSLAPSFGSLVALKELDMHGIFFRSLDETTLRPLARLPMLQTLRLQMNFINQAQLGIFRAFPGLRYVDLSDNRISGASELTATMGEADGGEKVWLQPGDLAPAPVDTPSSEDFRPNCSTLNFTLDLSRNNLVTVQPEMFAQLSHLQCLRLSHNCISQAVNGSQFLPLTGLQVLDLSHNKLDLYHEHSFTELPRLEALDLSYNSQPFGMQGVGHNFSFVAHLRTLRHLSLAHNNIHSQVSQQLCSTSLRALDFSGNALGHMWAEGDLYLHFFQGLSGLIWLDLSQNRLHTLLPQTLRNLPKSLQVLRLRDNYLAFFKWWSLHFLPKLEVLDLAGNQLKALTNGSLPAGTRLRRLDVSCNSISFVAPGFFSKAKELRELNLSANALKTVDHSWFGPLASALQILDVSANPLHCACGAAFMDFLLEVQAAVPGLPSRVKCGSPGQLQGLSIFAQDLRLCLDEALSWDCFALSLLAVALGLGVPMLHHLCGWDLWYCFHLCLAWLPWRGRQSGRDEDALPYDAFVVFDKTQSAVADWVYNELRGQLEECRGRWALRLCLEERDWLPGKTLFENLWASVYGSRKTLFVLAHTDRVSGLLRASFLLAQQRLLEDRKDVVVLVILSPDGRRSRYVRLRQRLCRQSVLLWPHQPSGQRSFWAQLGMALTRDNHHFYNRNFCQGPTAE
In words: HEK293-Blue-hTLR-9 cells assay (SEAP reporter, ODN2006 stimulation). The series is classed as cell-based. The conditions noted are these: HEK293-Blue-hTLR9 cells, ODN2006, 20 hrs incubation; read-out: HEK/hTLR9 IC50. The protocol: The following tests were carried out in order to determine the activity of the compounds of formula (I), (Ia) or (Ib) in HEK293-Blue-hTLR-7/8/9 cells assay.
HEK293-Blue-hTLR-9 Cells Assay:
A stable HEK293-Blue-hTLR-9 cell line was purchased from InvivoGen (Cat.#: hkb-htlr9, San Diego, Calif., USA). These cells were originally designed for studying the stimulation of human TLR9 by monitoring the activation of NF-κB. A SEAP (secreted embryonic alkaline phosphatase) reporter gene was placed under the control of the IFN-β minimal promoter fused to five NF-κB and AP-1-binding sites. The SEAP was induced by activating NF-κB and AP-1 via stimulating HEK-Blue hTLR9 cells with TLR9 ligands. Therefore the reporter expression was declined by TLR9 antagonist under the stimulation of a ligand, such as ODN2006 (Cat.#: tlrl-2006-1, Invivogen, San Diego, Calif., USA), for incubation of 20 hrs. The cell culture supernatant SEAP reporter activity was determined using QUANTI-Blue™ kit (Cat.#: rep-qb1, Invivogen, San Diego, Calif., USA) at a wavelength of 640 nm, a detection medium that turns purple or blue in the presence of alkaline phosphatase.
HEK293-Blue-hTLR9 cells were incubated at a density of 250,000-450,000 cells/mL in a volume of 170 μL in a 96-well plate in Dulbecco's Modified Eagle's medium (DMEM) containing 4.5 g/L glucose, 50 U/mL penicillin, […], 2 mM L-glutamine, 10% (v/v) heat-inactivated fetal bovine serum with addition of 20 μL test compound in a serial dilution in the presence of final DMSO at 1% and 10 μL of 20 uM ODN2006 in above DMEM, perform incubation under 37° C. in a CO2 incubator for 20 hrs. Then 20 μL of the supernatant from each well was incubated with 180 μL Quanti-blue substrate solution at 37° C. for 2 h and the absorbance was read at 620-655 nm using a spectrophotometer. The signaling pathway that TLR9 activation leads to downstream NF-κB activation has been widely accepted, and therefore similar reporter assay was modified for evaluating TLR9 antagonist.

Turning to `CO[C@H]1CN(c2ccc3c(c2)C[C@H]2CN(c4ccc(C#N)c5ncccc45)C[C@@H](C)N2C3)C[C@H]1N` [Example 9, 5-[(4R,11aS)-9-[(3R,4S)-3-amino-4-methoxy-pyrrolidin-1-yl]-4-methyl-1,3,4,6,11,11a-hexahydropyrazino[1,2-b]isoquinolin-2-yl]quinoline-8-carbonitrile], in series [1], the “CL(h)” value turned out to be 8.8 mL/min/kg. Moreover, the pIC50 at human TLR9 was 6.86.

Consider `C[C@@H]1CN(c2ccc(C#N)c3ncccc23)C[C@@H]2Cc3cc(N4CC5NCCOC5C4)ccc3CN21` (stereo in doubt) [Example 10, 5-[(4R,11aS)-9-[(4aS,7aS)-3,4,4a,5,7,7a-hexahydro-2H-pyrrolo[3,4-b][1,4]oxazin-6-yl]-4-methyl-1,3,4,6,11,11a-hexahydropyrazino[1,2-b]isoquinolin-2-yl]quinoline-8-carbonitrile], for which the “CL(h)” value in series [1] is 9.3 mL/min/kg. Also, the pIC50 on human TLR9 is 7.11.
